Values after ≈ are worked out from the molar mass of the structure shown.
Key:
HL-60(TB) = experiment: Growth inhibition of human HL-60(TB) cells assessed as cell growth at 10 uM incubated for 48 hrs by sulforhodamine B assay relative to control; type: functional; details: HL-60, 48 h, read-out: Activity
K562 = experiment: Growth inhibition of human K562 cells assessed as cell growth at 10 uM incubated for 48 hrs by sulforhodamine B assay relative to control; type: functional; details: K562, 48 h, read-out: Activity
MOLT-4 = experiment: Growth inhibition of human MOLT4 cells assessed as cell growth at 10 uM incubated for 48 hrs by sulforhodamine B assay relative to control; type: functional; details: MOLT-4, 48 h, read-out: Activity
RPMI-8226 = experiment: Growth inhibition of human RPMI8226 cells assessed as cell growth at 10 uM incubated for 48 hrs by sulforhodamine B assay relative to control; type: functional; details: RPMI-8226, 48 h, read-out: Activity
SR = experiment: Growth inhibition of human SR cells assessed as cell growth at 10 uM incubated for 48 hrs by sulforhodamine B assay relative to control; type: functional; details: read-out: Activity
EKVX = experiment: Growth inhibition of human EKVX cells assessed as cell growth at 10 uM incubated for 48 hrs by sulforhodamine B assay relative to control; type: functional; details: read-out: Activity
NCI-H23 = experiment: Growth inhibition of human NCI-H23 cells assessed as cell growth at 10 uM incubated for 48 hrs by sulforhodamine B assay relative to control; type: functional; details: NCI-H23, 48 h, read-out: Activity
NCI-H322M = experiment: Growth inhibition of human NCI-H322M cells assessed as cell growth at 10 uM incubated for 48 hrs by sulforhodamine B assay relative to control; type: functional; details: read-out: Activity
NCI-H460 = experiment: Growth inhibition of human NCI-H460 cells assessed as cell growth at 10 uM incubated for 48 hrs by sulforhodamine B assay relative to control; type: functional; details: NCI-H460, 48 h, read-out: Activity
HCT-116 = experiment: Growth inhibition of human HCT116 cells assessed as cell growth at 10 uM incubated for 48 hrs by sulforhodamine B assay relative to control; type: functional; details: HCT-116, 48 h, read-out: Activity
HCT-15 = experiment: Growth inhibition of human HCT15 cells assessed as cell growth at 10 uM incubated for 48 hrs by sulforhodamine B assay relative to control; type: functional; details: HCT-15, 48 h, read-out: Activity
SW-620 = experiment: Growth inhibition of human SW620 cells assessed as cell growth at 10 uM incubated for 48 hrs by sulforhodamine B assay relative to control; type: functional; details: SW-620, 48 h, read-out: Activity
SF-295 = experiment: Growth inhibition of human SF295 cells assessed as cell growth at 10 uM incubated for 48 hrs by sulforhodamine B assay relative to control; type: functional; details: SF-295, 48 h, read-out: Activity
M14 = experiment: Growth inhibition of human M14 cells assessed as cell growth at 10 uM incubated for 48 hrs by sulforhodamine B assay relative to control; type: functional; details: M14, 48 h, read-out: Activity
MDA-MB-435 = experiment: Growth inhibition of human MDA-MB-435 cells assessed as cell growth at 10 uM incubated for 48 hrs by sulforhodamine B assay relative to control; type: functional; details: MDA-MB-435, 48 h, read-out: Activity
SK-MEL-5 = experiment: Growth inhibition of human SK-MEL-5 cells assessed as cell growth at 10 uM incubated for 48 hrs by sulforhodamine B assay relative to control; type: functional; details: SK-MEL-5, 48 h, read-out: Activity
OVCAR-5 = experiment: Growth inhibition of human OVCAR5 cells assessed as cell growth at 10 uM incubated for 48 hrs by sulforhodamine B assay relative to control; type: functional; details: OVCAR-5, 48 h, read-out: Activity
SK-OV-3 = experiment: Growth inhibition of human SKOV3 cells assessed as cell growth at 10 uM incubated for 48 hrs by sulforhodamine B assay relative to control; type: functional; details: SK-OV-3, 48 h, read-out: Activity
786-0 = experiment: Growth inhibition of human 786-0 cells assessed as cell growth at 10 uM incubated for 48 hrs by sulforhodamine B assay relative to control; type: functional; details: 786-0, 48 h, read-out: Activity
ACHN = experiment: Growth inhibition of human ACHN cells assessed as cell growth at 10 uM incubated for 48 hrs by sulforhodamine B assay relative to control; type: functional; details: read-out: Activity
PC-3 = experiment: Growth inhibition of human PC3 cells assessed as cell growth at 10 uM incubated for 48 hrs by sulforhodamine B assay relative to control; type: functional; details: PC-3, 48 h, read-out: Activity
DU-145 = experiment: Growth inhibition of human DU145 cells assessed as cell growth at 10 uM incubated for 48 hrs by sulforhodamine B assay relative to control; type: functional; details: DU-145, 48 h, read-out: Activity
MCF7 = experiment: Growth inhibition of human MCF7 cells assessed as cell growth at 10 uM incubated for 48 hrs by sulforhodamine B assay relative to control; type: functional; details: MCF7, 48 h, read-out: Activity
T47D = experiment: Growth inhibition of human T47D cells assessed as cell growth at 10 uM incubated for 48 hrs by sulforhodamine B assay relative to control; type: functional; details: read-out: Activity
MDA-MB-468 = experiment: Growth inhibition of human MDA-MB-468 cells assessed as cell growth at 10 uM incubated for 48 hrs by sulforhodamine B assay relative to control; type: functional; details: MDA-MB-468, 48 h, read-out: Activity
U-937 = experiment: Cytotoxicity against human U937 cells after 72 hrs by MTT assay; type: functional; details: U-937, 72 h, read-out: LC50 (the source's name)
Plasmodium falciparum = experiment: Antimalarial activity against chloroquine-sensitive Plasmodium falciparum 3D7 incubated for 48 hrs by malstat reagent based LDH release assay; type: functional, organism-based; details: 3D7, 48 h
Trypanosoma cruzi = experiment: Antitrypanosomal activity against Trypanosoma cruzi Tulahuen amastigote forms infected in human U937 cells after 72 hrs by beta-galactosidase reporter gene assay; type: functional, organism-based; details: U-937, 72 h
Leishmania panamensis = experiment: Antileishmanial activity against EpiR/GFP fused Leishmania panamensis MHOM/CO/87/UA140 intracellular amastigotes infected in human […] cells after 72 hrs by flow cytometric method; type: functional, organism-based; details: MHOM/CO/87/UA140, 72 h

| SMILES | growth at 10 µM (HL-60(TB)) | growth at 10 µM (K562) | growth at 10 µM (MOLT-4) | growth at 10 µM (RPMI-8226) | growth at 10 µM (SR) | growth at 10 µM (EKVX) | growth at 10 µM (NCI-H23) | growth at 10 µM (NCI-H322M) | growth at 10 µM (NCI-H460) | growth at 10 µM (HCT-116) | growth at 10 µM (HCT-15) | growth at 10 µM (SW-620) | growth at 10 µM (SF-295) | growth at 10 µM (M14) | growth at 10 µM (MDA-MB-435) | growth at 10 µM (SK-MEL-5) | growth at 10 µM (OVCAR-5) | growth at 10 µM (SK-OV-3) | growth at 10 µM (786-0) | growth at 10 µM (ACHN) | also measured |
| --- | --- | --- | --- | --- | --- | --- | --- | --- | --- | --- | --- | --- | --- | --- | --- | --- | --- | --- | --- | --- | --- |
| Cc1ccc2[nH]c(=O)c(C3CNC(=O)c4ccccc4N3)cc2c1 (configuration not stated) | 107% | 111% | 113% | 102% | 133% | 102% | 97.1% | 110% | 106% | 106% | 105% | 106% | 103% | 103% | 108% | 98.6% | 92.9% | 110% | 103% | 103% | growth at 10 µM (PC-3): 98.5%; growth at 10 µM (DU-145): 106%; growth at 10 µM (MCF7): 102%; growth at 10 µM (T47D): 116%; growth at 10 µM (MDA-MB-468): 110%; CC50 (U-937): 52.8 µg/mL (≈ 165 µM); EC50 (Plasmodium falciparum): 60.9 µg/mL (≈ 191 µM); EC50 (Trypanosoma cruzi): 46.3 µg/mL (≈ 145 µM); EC50 (Leishmania panamensis): 22.9 µg/mL (≈ 71.8 µM) |
| O=C1NCC(c2cc3ccccc3[nH]c2=O)Nc2ccccc21 (configuration not stated) | 95.7% | 90.2% | 111% | 106% | 100% | 106% | 97.4% | 100% | 105% | 92.6% | 106% | 102% | 106% | 101% | 107% | 97.2% | 91.2% | 89.9% | 100% | 99.7% | growth at 10 µM (PC-3): 93.2%; growth at 10 µM (DU-145): 111%; growth at 10 µM (MCF7): 103%; growth at 10 µM (T47D): 91%; growth at 10 µM (MDA-MB-468): 97.5%; CC50 (U-937): 36.3 µg/mL (≈ 119 µM); EC50 (Plasmodium falciparum): 64.7 µg/mL (≈ 212 µM); EC50 (Trypanosoma cruzi): 48.8 µg/mL (≈ 160 µM); EC50 (Leishmania panamensis): 110 µg/mL (≈ 361 µM) |
| CCCCOc1nc2c(C)cccc2cc1C1CNC(=O)c2ccccc2N1 (configuration not stated) | 26.2% | 19% | 39% | 57.5% | 18.1% | 61.9% | 80% | 105% | 56.2% | 45.9% | 43.4% | 42.3% | 52.5% | 54.7% | 4.51% | 43.4% | 112% | 69.2% | 46.2% | 66.3% | growth at 10 µM (PC-3): 40.1%; growth at 10 µM (DU-145): 86%; growth at 10 µM (MCF7): 15.8%; growth at 10 µM (T47D): 58.4%; growth at 10 µM (MDA-MB-468): 51.6%; CC50 (U-937): 1 µg/mL (≈ 2.66 µM); EC50 (Plasmodium falciparum): > 20 µg/mL; EC50 (Trypanosoma cruzi): 2.68 µg/mL (≈ 7.14 µM); EC50 (Leishmania panamensis): 3.35 µg/mL (≈ 8.92 µM) |

— ChEMBL document CHEMBL4138146, “A Schmidt rearrangement-mediated synthesis of novel tetrahydro-benzo[1,4]diazepin-5-ones as potential anticancer and antiprotozoal agents” (Eur J Med Chem, 2017)
